Laboratory results from US11242351B2, “Tricyclic inhibitors of the BCL6 BTB domain protein-protein interaction and uses thereof” (priority 2017, dated 2022).
Where two headings read alike, the source gives them in different places.

Legend:
Karpas422 cells = assay: Tumor cell growth inhibition assay; assay type: cell-based; details: Homo sapiens, KARPAS-422, 144 h, read-out: GI Karpas EC50
How it was run: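 Karpas422 cells were dosed over a 10-point concentration range (top 5 μM) and grown 6 days at 37 °C, 5% CO2, in Alpha-MEM with 10% FBS. Viability was read as ATPlite luminescence.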

[1] = system: BCL6 reporter construct in SuDHL4-3×BCL6-TK-Luc cells; assay: Cell-based luciferase assay (BCL6 reporter); details: 48 h, read-out: Luc IC50
How it was run: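 SuDHL4 cells stably carrying a 3×BCL6-site TK-promoter firefly luciferase reporter, 15,000 cells/well, dosed over 10 concentrations (top 10 μM) and cultured two days at 37° C, 5% CO2. Luciferase luminescence read after room-temperature equilibration with neolite reagent.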

[2] = molecular target: BCL6 BTB domain (biotin-thrombin-BCL6 amino acids 1-129) (Homo sapiens (Human), UniProt P41182); assay: Surface Plasmon Resonance (SPR) assay; assay type: binding; details: Biacore T200, single cycle kinetic analysis
Protocol: Surface Plasmon Resonance (SPR) Assay
SPR studies were performed using a Biacore™ T200 instrument (GE Health Sciences Inc.). […] The Biacore flow rate was set at 100 μl/min. […] Curve fitting and KD calculations were performed with the Biacore T200 Evaluation software (GE Health Sciences Inc).

[3] = Karpas422 cells, six days, ATPlite
[4] = SuDHL4-3×BCL6-TK-Luc cells, two days

Row | SMILES | EC50 (Karpas422 cells) | IC50 [1] | Kd [2] | EC50 (Karpas422 cells; [3]) | IC50 [1, 4]
1 | C[C@H]1CN(C2COC2)CCN1c1cc(NC(=O)Cn2cc(-c3cc(C(N)=O)c(O)c(F)c3F)c3c(=O)n4c(nc32)COCC4)c(Cl)c(F)n1 [I-34, (S)-5-(1-(2-((3-chloro-2-fluoro-6-(2-methyl-4-(oxetan-3-yl)piperazin-1-yl)pyridin-4-yl)amino)-2-oxoethyl)-4-oxo-4,6,7,9-tetrahydro-1H-pyrrolo[2′,3′:4,5]pyrimido [2,1-c][1,4]oxazin-3-yl)-3,4-difluoro-2-hydroxy-benzamide] | 0.177 µM | 0.155 µM | 0.00724 µM |  | 
2 | CCN1CCN(c2cc(NC(=O)Cn3cc(-c4cc(Cl)c(O)c(C(N)=O)c4)c4c(=O)n5c(nc43)CCC5)c(Cl)c(F)n2)[C@@H](C)C1 [I-82, (S)-3-chloro-5-(1-(2-((3-chloro-6-(4-ethyl-2-methylpiperazin-1-yl)-2-fluoropyridin-4-yl)amino)-2-oxoethyl)-4-oxo-4,6,7,8-tetra-hydro-1H-dipyrrolo [1,2-a:2′,3′-d]pyrimi-din-3-yl)-2-hydroxy-benzamide] |  |  | 0.00413 µM | 0.0278 µM | 0.0631 µM
3 | C[C@H]1COCCN1c1cc(NC(=O)Cn2cc(-c3cc(C(N)=O)c(O)c(F)c3F)c3c(=O)n4c(nc32)CCCCC4)c(Cl)c(F)n1 [I-51, (S)-5-(1-(2-((3-chloro-2-fluoro-6-(3-methyl-morpholino)pyridin-4-yl)amino)-2-oxoethyl)-4-oxo-4,6,7,8,9,10-hexahydro-1H-pyrrolo [2′,3′:4,5]pyrimido [1,2-a]azepin-3-yl)-3,4-difluoro-2-hydroxy-benzamide] |  |  | 0.0891 µM | 0.974 µM | 3.05 µM
4 | C[C@H]1CN(C2COC2)CCN1c1cc(NC(=O)Cn2cc(-c3cc(C(N)=O)c(O)c(Cl)c3F)c3c(=O)n4c(nc32)CCC4)c(Cl)c(F)n1 [I-26, (S)-3-chloro-5-(1-(2-((3-chloro-2-fluoro-6-(2-methyl-4-(oxetan-3-yl)piperazin-1-yl)pyridin-4-yl)amino)-2-oxoethyl)-4-oxo-4,6,7,8-tetrahydro-1H-dipyrrolo[1,2-a:2′,3′-d]pyrimidin-3-yl)-4-fluoro-2-hydroxy-benzamide] |  |  | 0.0302 µM | 0.549 µM | 0.585 µM
5 | C[C@H]1COCCN1c1cc(NC(=O)Cn2cc(-c3cc(Cl)c(O)c(C(N)=O)c3)c3c(=O)n4c(nc32)CCC4)c(Cl)cn1 [I-2, (S)-3-chloro-5-(1-(2-((5-chloro-2-(3-methyl-morpholino)pyridin-4-yl)amino)-2-oxoethyl)-4-oxo-4,6,7,8-tetra-hydro-1H-dipyrrolo [1,2-a:2′,3′-d]pyrimidin-3-yl)-2-hydroxy-benzamide] |  |  | 0.00448 µM | 0.304 µM | 0.095 µM
6 | C[C@H](C1CC1)N1CCN(c2cc(NC(=O)Cn3cc(-c4cc(C(N)=O)c(O)c(F)c4F)c4c(=O)n5c(nc43)CCC5)c(Cl)c(F)n2)[C@@H](C)C1 [I-39, 5-(1-(2-((3-chloro-6-((S)-4-((R)-1-cyclo-propylethyl)-2-methyl-piperazin-1-yl)-2-fluoropyridin-4-yl)amino)-2-oxoethyl)-4-oxo-4,6,7,8-tetrahydro-1H-dipyrrolo[1,2-a:2′,3′-d]pyrimidin-3-yl)-3,4-difluoro-2-hydroxy-benzamide] |  |  | 0.0349 µM | 0.384 µM | 0.21 µM
7 | COCCN1CCN(c2cc(NC(=O)Cn3cc(-c4cc(F)c(O)c(C(N)=O)c4)c4c(=O)n5c(nc43)CCC5)c(Cl)c(F)n2)[C@@H](C)C1 [I-77, (S)-5-(1-(2-((3-chloro-2-fluoro-6-(4-(2-methoxyethyl)-2-methylpiperazin-1-yl)pyridin-4-yl)amino)-2-oxoethyl)-4-oxo-4,6,7,8-tetrahydro-1H-dipyrrolo[1,2-a:2′,3′-d]pyrimidin-3-yl)-3-fluoro-2-hydroxy-benzamide] |  |  | 0.00142 µM | 0.0207 µM | 0.0274 µM
8 | C[C@H]1CN(C)CCN1c1cc(NC(=O)Cn2cc(-c3cc(C(N)=O)c(O)c4c3OCO4)c3c(=O)n4c(nc32)CC(C)(C)C4)c(Cl)c(F)n1 [I-92, (S)-7-(1-(2-((3-chloro-6-(2,4-dimethylpipera-zin-1-yl)-2-fluoro-pyridin-4-yl)amino)-2-oxoethyl)-7,7-dimethyl-4-oxo-4,6,7,8-tetra-hydro-1H-dipyrrolo [1,2-a:2′,3′-d]pyrimi-din-3-yl)-4-hydroxy-benzo[d][1,3]dioxole-5-carboxamide] |  |  | 0.00087 µM | 0.00922 µM | 0.0124 µM
9 | C[C@H]1CN(CC2(C)CC2)CCN1c1cc(NC(=O)Cn2cc(-c3cc(C(N)=O)c(O)c(F)c3F)c3c(=O)n4c(nc32)CCC4)c(Cl)cn1 [I-9, (S)-5-(1-(2-((5-chloro-2-(2-methyl-4-((1-methyl-cyclopropyl)methyl)piperazin-1-yl)pyridin-4-yl)amino)-2-oxoethyl)-4-oxo-4,6,7,8-tetrahydro-1H-dipyrrolo[1,2-a:2′,3′-d]pyrimidin-3-yl)-3,4-difluoro-2-hydroxy-benzamide] |  |  | 0.0568 µM | 0.692 µM | 0.743 µM
10 | CN1CCN(c2cc(NC(=O)Cn3cc(-c4cc(C(N)=O)c(O)c(F)c4F)c4c(=O)n5c(nc43)CCC5)c(Cl)cn2)CC1 [I-36, 5-(1-(2-((5-chloro-2-(4-methylpiperazin-1-yl)pyridin-4-yl)amino)-2-oxoethyl)-4-oxo-4,6,7,8-tetrahydro-1H-dipyrrolo[1,2-a:2′,3′-d]pyrimidin-3-yl)-3,4-difluoro-2-hydroxy-benzamide] | 0.48 µM | 0.701 µM | 0.0232 µM |  | 
11 | CN1C[C@H]2CC[C@@H](C1)N2c1cc(NC(=O)Cn2cc(-c3cc(C(N)=O)c(O)c(F)c3F)c3c(=O)n4c(nc32)CCC4)c(Cl)cn1 [I-56, 5-(1-(2-((5-chloro-2-((1R,5S)-3-methyl-3,8-diazabicyclo[3.2.1]octan-8-yl)pyridin-4-yl)amino)-2-oxoethyl)-4-oxo-4,6,7,8-tetrahydro-1H-dipyrrolo[1,2-a:2′,3′-d]pyrimidin-3-yl)-3,4-difluoro-2-hydroxy-benzamide] |  |  | 0.0387 µM | 0.586 µM | 0.684 µM
12 | C[C@H]1COCCN1c1cc(NC(=O)Cn2cc(-c3cc(C(N)=O)c(O)c(Cl)c3F)c3c(=O)n4c(nc32)CCC4)c(Cl)c(F)n1 [I-11, (S)-3-chloro-5-(1-(2-((3-chloro-2-fluoro-6-(3-methylmorpholino)pyridin-4-yl)amino)-2-oxoethyl)-4-oxo-4,6,7,8-tetrahydro-1H-dipyrrolo [1,2-a:2′,3′-d]pyrimidin-3-yl)-4-fluoro-2-hydroxybenzamide] |  |  | 0.112 µM | 1.9 µM | 0.988 µM
13 | CN(C)c1cc(NC(=O)Cn2cc(-c3cc(C(N)=O)c(O)c(Cl)c3F)c3c(=O)n4c(nc32)CCC4)c(Cl)c(F)n1 [I-27, 3-chloro-5-(1-(2-((3-chloro-6-(dimethyl-amino)-2-fluoro-pyridin-4-yl)amino)-2-oxoethyl)-4-oxo-4,6,7,8-tetrahydro-1H-dipyrrolo[1,2-a:2′,3′-d]pyrimidin-3-yl)-4-fluoro-2-hydroxy-benzamide] | 1.63 µM | 1.14 µM | 0.19 µM |  | 
14 | COc1c(-c2cn(CC(=O)Nc3cc(N4CCN(C)C[C@@H]4C)nc(F)c3Cl)c3nc4n(c(=O)c23)CCC4)cc(C(N)=O)c(O)c1Cl [I-95, (S)-3-chloro-5-(1-(2-((3-chloro-6-(2,4-dimethylpiperazin-1-yl)-2-fluoropyridin-4-yl)amino)-2-oxo-ethyl)-4-oxo-4,6,7,8-tetrahydro-1H-dipyrrolo[1,2-a:2′,3′-d]pyrimidin-3-yl)-2-hydroxy-4-methoxy-benzamide] | 0.879 µM | 0.993 µM | 0.45 µM |  | 
15 | C[C@H]1CNCCN1c1cc(NC(=O)Cn2cc(-c3cc(C(N)=O)c(O)c4c3OCO4)c3c(=O)n4c(nc32)CC(C)(C)C4)c(Cl)c(F)n1 [I-96, (S)-7-(1-(2-((3-chloro-2-fluoro-6-(2-methyl-piperazin-1-yl)pyridin-4-yl)amino)-2-oxo-ethyl)-7,7-dimethyl-4-oxo-4,6,7,8-tetrahydro-1H-dipyrrolo[1,2-a:2′,3′-d]pyrimidin-3-yl)-4-hydroxybenzo[d][1,3] dioxole-5-carboxamide] | 0.0142 µM | 0.0175 µM | 0.00096 µM |  | 
16 | COc1c(-c2cn(CC(=O)Nc3cc(N4CCN(C)C[C@@H]4C)nc(F)c3Cl)c3nc4n(c(=O)c23)CCC4)cc(C(N)=O)c(O)c1OC [I-68, (S)-5-(1-(2-((3-chloro-6-(2,4-dimethylpiperazin-1-yl)-2-fluoro-pyridin-4-yl)amino)-2-oxoethyl)-4-oxo-4,6,7,8-tetrahydro-1H-dipyrrolo[1,2-a:2′,3′-d]pyrimidin-3-yl)-2-hydroxy-3,4-dimethoxy-benzamide] | 1.62 µM | 3.42 µM | 0.0313 µM |  | 
17 | C[C@H]1COCCN1c1cc(NC(=O)Cn2cc(-c3cc(C(N)=O)c(O)c4c3OCO4)c3c(=O)n4c(nc32)CCC4)c(Cl)cn1 [I-85, (S)-7-(1-(2-((5-chloro-2-(3-methylmorpholino)pyridin-4-yl)amino)-2-oxoethyl)-4-oxo-4,6,7,8-tetrahydro-1H-dipyrrolo[1,2-a:2′,3′-d]pyrimidin-3-yl)-4-hydroxybenzo[d][1,3] dioxole-5-carboxamide] |  |  | 0.00161 µM | 0.0296 µM | 0.0154 µM
